According to patent EP0068669A1, “Secondary phenylethanol amines, processes for their preparation and their pharmaceutical application” (priority 1981, dated 1983):

Key:
Type in all cases: in vivo
Male CFLP mice = assay: Platelet aggregation inhibition activity, response to intravenous collagen; conditions: oral dose two hours before intravenous collagen 400 µg/kg; blood platelet concentration 30 sec after collagen; Aspirin 600(108), Example 8 2.5 (1) µmol(mg)/kg p.o.
Experimental: Male CFLP mice (ca 20 g, n=8) were dosed orally with compound or vehicle (controls) after an overnight fast. Two hours later each mouse received an intravenous dose of collagen (400 µg/kg, pH 6-6.6). Exactly 30 sec after injection of collagen, each mouse was placed in a chamber of C02 until respiration ceased. […] Each concentration was expressed as a per cent of that obtained in a tail blood sample taken immediately before injection of collagen.

Female CFLP mice [1] = assay: Hypoglycaemic activity, subcutaneous glucose load in fasted mice; conditions: oral dose 1.0-12.5 μmol/kg (per compound, see Dose column), 30 minutes before glucose 1 g/kg subcutaneously; area over 2 hours compared with control mice given water; mice fasted 24 hours
Experimental: Female CFLP mice, weighing approximately 25 g, were fasted for 24 hours prior to the study. The compounds under study were administered orally as an aqueous solution to each of 8 mice. 30 minutes later a blood sample (20 µℓ) was obtained from the tail for the analysis of blood glucose. Immediately after taking this blood sample, glucose (1 g/kg body weight) was administered subcutaneously to each mouse. 8 mice were given water as a control. Blood samples were then obtained from each mouse at 30-minute intervals for 120 minutes.
Compounds that produced a significant (P<0.05) reduction of blood glucose, compared with control mice given water, at any time interval , were considered active. The area under the blood glucose curve over the 2 hour period after the administration of the glucose was calculated for each compound and compared with the value for control animals.

Female CFLP mice [2] = assay: Effect on energy expenditure and food intake of mice; conditions: 19.5-26.3 mg/kg p.o. (per compound, see Dose column); for Mean Food Intake: percentage of mean food intake of mice dosed with water, over 21 hours after a single oral dose; for Mean Energy Expenditure (0-3 h) / Mean Energy Expenditure (0-21 h): percentage of mean rate of energy expenditure of mice dosed with water, single oral dose, 12 mice; for Mean Energy Expenditure (0-3 h): 0-3 h after dosing; for Mean Energy Expenditure (0-21 h): 0-21 h after dosing
Experimental: The compounds were dissolved in water by addition of one mole of hydrochloric acid per mole of compound and these solutions were administered orally to each of 12 mice. A further 12 mice were dosed orally with water. The mice were placed in boxes through which air was drawn and the oxygen content of the air leaving the boxes was measured. The energy expenditure of the mice was calculated for 21 hours after dosing from the volume of air leaving the boxes and its oxygen content, following the principles described by J.B. de V. Weir, J. Ph^ysiol. (London) 109, 1-9, (1949). The food intake of the mice was measured over this same period of 21 hours. The results are expressed as a percentage of the mean food intake or rate of energy expenditure of the mice dosed with water.

Question: Which “% Inhibition of response to collagen” value (Male CFLP mice) does the source give for `CC(=O)Oc1ccccc1C(=O)O` [Aspirin, reference compound] here?
Answer: Its value is 38 p<0.05%.

Question: What does the source list for `CC(Cc1ccc(NS(C)(=O)=O)cc1)NCC(O)c1ccccc1` (centres unmarked) [Example 1, N-(2-(4-Methylsulphonylaminophenyl)-1-methylethyl]-2-hydroxy-2-phenylethanamine]?
Answer: % Reduction in area under Blood glucose curve (Female CFLP mice [1]): 24.7%; Mean Food Intake (Female CFLP mice [2]): 80 percentage; Mean Energy Expenditure (0-3 h) (Female CFLP mice [2]): 130 percentage; Mean Energy Expenditure (0-21 h) (Female CFLP mice [2]): 95 percentage

Question: What does the source list for `CC(Cc1ccc(NS(C)(=O)=O)cc1)NCC(O)c1cccc(C(F)(F)F)c1` (centres unmarked) [Example 2, N-[2-(4-Methylsulphonylaminophenyl)-1-methylethyl]-2-hydroxy-2-(3-trifluoromethylphenyl)ethanamine]?
Answer: Mean Food Intake (Female CFLP mice [2]): 99 percentage; Mean Energy Expenditure (0-3 h) (Female CFLP mice [2]): 142 percentage; Mean Energy Expenditure (0-21 h) (Female CFLP mice [2]): 102 percentage

Question: Which “Mean Food Intake” value (Female CFLP mice [2]) does the source give for `CCOC(=O)Nc1ccc(CC(C)NCC(O)c2cccc(C(F)(F)F)c2)cc1` (centres unmarked) [Example 3, N-[2-(4-Ethoxycarbonylaminophenyl)-1-methylethyl]-2-hydroxy-2-(3-trifluoromethylphenyl)ethanamine] here?
Answer: Its value is 76 percentage.

Question: And the “Mean Energy Expenditure (0-3 h)” value (Female CFLP mice [2])?
Answer: Its value is 139 percentage.

Question: What about the “Mean Energy Expenditure (0-21 h)” value (Female CFLP mice [2]) of the same compound?
Answer: The value was 121 percentage.

Question: With `CC(=O)Nc1ccc(CC(C)NCC(O)c2cccc(C(F)(F)F)c2)cc1` (centres unmarked) [Example 4, N-(2-(4-Acetylaminophenyl)-1-methylethyl)-2-hydroxy-2-(3-trifluoromethylphenyl)ethanamine] as the compound, how does the “% Reduction in area under Blood glucose curve” value (Female CFLP mice [1]) read?
Answer: The value was 15.9%.

Question: And the “Mean Food Intake” value (Female CFLP mice [2])?
Answer: The value was 72 percentage.

Question: And the “Mean Energy Expenditure (0-3 h)” value (Female CFLP mice [2])?
Answer: The value was 151 percentage.

Question: And the “Mean Energy Expenditure (0-21 h)” value (Female CFLP mice [2])?
Answer: Its value is 115 percentage.

Question: Which results are given for `CNC(=O)Nc1ccc(CC(C)NCC(O)c2cccc(C(F)(F)F)c2)cc1` (centres unmarked) [Example 5, N-[2-(4-Methylaminocarbonylaminophenyl)-1-methylethyl]-2-hydroy-2-(3-trifluoromethylphenyl)ethanamine]?
Answer: Mean Food Intake (Female CFLP mice [2]): 72 percentage; Mean Energy Expenditure (0-3 h) (Female CFLP mice [2]): 159 percentage; Mean Energy Expenditure (0-21 h) (Female CFLP mice [2]): 121 percentage

Question: Which “Mean Food Intake” value (Female CFLP mice [2]) does the source give for `CCNc1ccc(CC(C)NCC(O)c2cccc(C(F)(F)F)c2)cc1` (centres unmarked) [Example 6, N-[2-(4-Ethylaminophenyl)-1-methylethyl]-2-hydroxy-2-(3-trifluoromethvlphenvl)ethanamine] here?
Answer: The value was 108 percentage.

Question: What about the “Mean Energy Expenditure (0-3 h)” value (Female CFLP mice [2]) of the same compound?
Answer: The value was 169 percentage.

Question: And the “Mean Energy Expenditure (0-21 h)” value (Female CFLP mice [2])?
Answer: Its value is 128 percentage.

Question: `CC(Cc1ccc(N)cc1)NCC(O)c1cccc(C(F)(F)F)c1` (centres unmarked) [Example 7, N-[2-(4-Aminophenyl)-1-methylethyl]-2-hydroxy-2-(3-trifluoromethylphenyl) ethanamine] was tested. Which “% Reduction in area under Blood glucose curve” value (Female CFLP mice [1]) did it give?
Answer: The value was 38.0%.

Question: What about the “Mean Food Intake” value (Female CFLP mice [2]) of the same compound?
Answer: Its value is 84 percentage.

Question: What about the “Mean Energy Expenditure (0-3 h)” value (Female CFLP mice [2]) of the same compound?
Answer: Its value is 182 percentage.

Question: What about the “Mean Energy Expenditure (0-21 h)” value (Female CFLP mice [2]) of the same compound?
Answer: Its value is 118 percentage.

Question: What does the source list for `COC(=O)CNc1ccc(CC(C)NCC(O)c2cccc(C(F)(F)F)c2)cc1` (centres unmarked) [Example 8, N-[2-(4-Methoxycarbonylmethylaminophenyl)-1-methylethyl] -2-hydroxy-2-(3-trifluoromethylphenyl) ethanamine]?
Answer: % Reduction in area under Blood glucose curve (Female CFLP mice [1]): 36.2%; Mean Energy Expenditure (0-3 h) (Female CFLP mice [2]): 140 percentage; % Inhibition of response to collagen (Male CFLP mice): 42 p<0.02%

Question: What does the source list for `CC(Cc1ccc([N+](=O)[O-])cc1)NCC(O)c1cccc(C(F)(F)F)c1` (centres unmarked) [Example 9, N-[2-(4-Nitrophenyl)-1-methylethyl]-2-hydroxy-2-(3-trifluoromethylphenyl) ethanamine]?
Answer: % Reduction in area under Blood glucose curve (Female CFLP mice [1]): 13.2%; Mean Food Intake (Female CFLP mice [2]): 94 percentage; Mean Energy Expenditure (0-3 h) (Female CFLP mice [2]): 112 percentage; Mean Energy Expenditure (0-21 h) (Female CFLP mice [2]): 115 percentage

Question: Which results are given for `CC(Cc1ccc(N(C)C)cc1)NCC(O)c1cccc(C(F)(F)F)c1` (centres unmarked) [Example 10, N-[2-(4-Dimethylaminophenyl]-1-methylethyl]-2-hydroxy-2-(3-trifluoromethylphenvl)ethanamine]?
Answer: Mean Food Intake (Female CFLP mice [2]): 70 percentage; Mean Energy Expenditure (0-3 h) (Female CFLP mice [2]): 169 percentage; Mean Energy Expenditure (0-21 h) (Female CFLP mice [2]): 125 percentage

Question: Which “Mean Food Intake” value (Female CFLP mice [2]) does the source give for `CC(Cc1ccc(N2CCCC2)cc1)NCC(O)c1cccc(C(F)(F)F)c1` (centres unmarked) [Example 11, N-[2-(4-(1-Pyrrolidyl)phenyl)-1-methylethyl] -2-hydroxy-2-(3-trifluoromethylphenyl)ethanamine] here?
Answer: Its value is 95 percentage.

Question: What about the “Mean Energy Expenditure (0-3 h)” value (Female CFLP mice [2]) of the same compound?
Answer: Its value is 151 percentage.

Question: What about the “Mean Energy Expenditure (0-21 h)” value (Female CFLP mice [2]) of the same compound?
Answer: The value was 112 percentage.

Question: What does the source list for `CC(Cc1ccc(N2CCOCC2)cc1)NCC(O)c1cccc(C(F)(F)F)c1` (centres unmarked) [Example 12, N-[2-(4-(4-Morpholino)phenyl)-1-methylethyl]-2-hydroxy-2-(3-trifluoromethylphenyl)ethanamine]?
Answer: Mean Food Intake (Female CFLP mice [2]): 72 percentage; Mean Energy Expenditure (0-3 h) (Female CFLP mice [2]): 143 percentage; Mean Energy Expenditure (0-21 h) (Female CFLP mice [2]): 121 percentage

Question: For `CCOC(=O)C1CCN(c2ccc(CC(C)NCC(O)c3cccc(C(F)(F)F)c3)cc2)CC1` (centres unmarked) [Example 13, N-[2-(4-(1-(4-Carboethoxy)piperidyl)phenyl)-1-methylethyl]-2-hydroxy-2-(3-trifluoromethylphenyl)ethanamine], which “Mean Food Intake” value (Female CFLP mice [2]) is on record?
Answer: The value was 95 percentage.

Question: What about the “Mean Energy Expenditure (0-3 h)” value (Female CFLP mice [2]) of the same compound?
Answer: The value was 121 percentage.

Question: What about the “Mean Energy Expenditure (0-21 h)” value (Female CFLP mice [2]) of the same compound?
Answer: Its value is 103 percentage.

Question: Which results are given for `CNC(=O)C1CCN(c2ccc(CC(C)NCC(O)c3cccc(C(F)(F)F)c3)cc2)CC1` (centres unmarked) [Example 14, N-[2-(4-(1-(4-N'-Methylcarboxamido)piperidyl)phenyl)-1-methylethyl]-2-hydroxy-2-(3-trifluoromethylphenyl)ethanamine]?
Answer: Mean Food Intake (Female CFLP mice [2]): 106 percentage; Mean Energy Expenditure (0-3 h) (Female CFLP mice [2]): 118 percentage; Mean Energy Expenditure (0-21 h) (Female CFLP mice [2]): 102 percentage
